Measured values from patent US4311702A, “Imidazo[1,2-a]pyridines having anti-ulcer activity” (Poli Industria Chimica S.p.A., priority 1979, dated 1982).
Like-named read-outs stand apart in the source and are kept apart here.

What was measured:
[1] = tested on: cold and restraint gastric ulcers; experiment: Cold and restraint gastric ulcers in the rat; assay type: in vivo, rat (Wistar female); conditions: po, read-out: Cold and restraint gastric ulcers ED50
Description: cold and restraint gastric ulcers induced in the rat following the under mentioned method originally described by E. C. Senay and R. J. Levine in Proc. Soc.
Wistar female rats fasting from the previous evening are introduced in plastic tubes having such a diameter to exert a light constriction and immediately after they are put in a thermoregulated ambient at about 4° C. Two hours later the rats are sacrificed under ethereal anesthesia and their stomachs are examined to ascertain the presence of ulcers.
The ulcer index of each stomach is determined, multiplying the number of gastric lesions of any kind by a corresponding arbitrary value (petechiae=0.5; punctiform ulcer=1; linear ulcer<2 mm=2; linear ulcer>2 mm=3) and adding the partial scores. Rats are treated with the compound under study half an hour before cold exposure.

[2] = tested on: acetylsalicylic acid and pylorus ligation gastric ulcers; experiment: Acetylsalicylic acid and pylorus ligation gastric ulcers in the rat; assay type: in vivo, rat (Wistar male); conditions: read-out: Acetylsalicylic acid and pylorus ligation gastric ulcers ED50
Description: Wistar male rats, weighing 160-200 g, fasting from the previous evening are administered intraduodenum with the compound under study immediately after pylorus ligation under light ethereal anesthesia. Two hours after treatment rats receive orally 50 mg/kg of acetylsalicylic acid, dissolved in 5% gum arabic solution. An hour later rats are sacrificed under ether anesthesia and stomachs examined for presence of ulcers.

[3] = tested on: indomethacin gastric ulcers; experiment: Indomethacin gastric ulcers in the rat; assay type: in vivo, rat (Wistar male); conditions: po, read-out: Indomethacin gastric ulcers ED50
Description: indomethacin gastric ulcers, induced in the rat following the under mentioned method originally described by Y. H. Lee, K. W. Mollison, W. C. Cheng in Arch. Int. Pharmacodyn.
Wistar male rats, weighing 160-200 g, starved for 24 hours, are administered endoperitoneally with 30 mg/kg of indomethacin in 0.6% aqueous suspension of 1% gum arabic solution and immediately after they are treated orally with the compound under study. 5 hours later animals are sacrificed under ethereal anesthesia, the stomachs are removed, open along the great curvature and examined for the presence of ulcers. The ulcer index is expressed in terms of square root of the number of gastric ulcers.

[4] = tested on: gastric secretion (hydrochloric acid); experiment: Activity on gastric secretion in Shay rats (total acidity); assay type: in vivo, rat (Wistar male); conditions: Rattus norvegicus, read-out: Shay rats total acidity ED50
Description: Wistar male rats, weighing 160-200 g, starved for 24 hours are treated orally with the compound under study after pylorus ligation under light ethereal anesthesia. 4 hours later rats are anesthetized with ether and after oesophagus ligation, the stomachs are removed and the contents collected. After centrifugation of the gastric juice, the quantity of hydrochloric acid is determined by titration with 0.01 N Sodium hydroxide, using phenolphthalein as indicator.

[5] = os, half an hour before cold exposure, dose reducing the ulcer index by 50% compared with controls
[6] = intraduodenum immediately after pylorus ligation, dose reducing the number of ulcers by 50% compared with controls
[7] = os, 30 mg/kg indomethacin endoperitoneally, dose reducing the ulcer index by 50% compared with controls
[8] = i.d. (Table 2 head), 4 hours after pylorus ligation, dose reducing secretion of hydrochloric acid by 50% compared with controls

| SMILES | ED50 [1, 5] [mg/kg] | ED50 [2, 6] [mg/kg] | ED50 [3, 7] [mg/kg] | ED50 [4, 8] [mg/kg] | ED50 [1] [mg/kg] | ED50 [2] [mg/kg] | ED50 [3] [mg/kg] | ED50 ([4]; 4 h) [mg/kg] |
| --- | --- | --- | --- | --- | --- | --- | --- | --- |
| CNC(=NC#N)NCCSCc1cnc2ccccn12 [Ia] | 2.8 | 7.3 | 3.4 | 1.8 | – | – | – | – |
| CNC(=NC#N)NCCSCc1c(C)nc2ccccn12 [Ib] | 1.5 | 2.1 | 0.7 | 1.1 | – | – | – | – |
| CNC(=NC#N)NCCSC(C)c1cnc2ccccn12 (centres unmarked) [Ic] | 1.9 | 5.7 | 3.3 | 2.8 | – | – | – | – |
| CNC(=NC#N)NCCSC(C)c1c(C)nc2ccccn12 (centres unmarked) [Id] | 0.7 | 0.9 | 0.9 | 0.6 | – | – | – | – |
| CN/C(=N/CCSCc1nc[nH]c1C)NC#N [[…], Cimetidine, reference compound] | – | – | – | – | 6.3 | 3.8 | 2.4 | 0.6 |
